Measurements published in patent publication US20200325127A1, “PYRIDIN-3-YL ACETIC ACID DERIVATIVES AS INHIBITORS OF HUMAN IMMUNODEFICIENCY VIRUS REPLICATION” (priority 2016, published 2020).
Like-named read-outs stand apart in the source and are kept apart here.

Test system: NL-RLuc virus
Experiment: Inhibition of HIV replication (NL-RLuc luciferase reporter virus in MT-2 cells)
Format: cell-based
Conditions: Human immunodeficiency virus 1, MT2, 120 h
Description: Inhibition of HIV replication: A recombinant NL-RLuc proviral clone was constructed in which a section of the nef gene from NL4-3 was replaced with the Renilla Luciferase gene. This virus is fully infectious and can undergo multiple cycles of replication in cell culture. In addition, the luciferous reporter provides a simple and easy method for quantitating the extent of virus growth and consequently, the antiviral activity of test compounds. The plasmid pNLRLuc contains the proviral NL-Rluc DNA cloned into pUC18 at the PvuII site. The NL-RLuc virus was prepared by transfection of 293T cells with the plasmid pNLRLuc. Transfections were performed using the LipofectAMINE PLUS kit from Invitrogen (Carlsbad, Calif.) according to the manufacturer and the virus generated was titered in MT-2 cells. For susceptibility analyses, the titrated virus was used to infect MT-2 cells in the presence of compound, and after 5 days of incubation, cells were processed and quantitated for virus growth by the amount of expressed luciferase. Assay media was RPMI 1640 supplemented with 10% heat inactivated fetal bovine serum (FBS), 100 units/ml penicillin G/100 units/ml streptomycin, 10 mM HEPES buffer pH 7.55 and 2 mM L-glutamine. The results from at least 2 experiments were used to calculate the EC50 values. Luciferase was quantitated using the Dual Luciferase kit from Promega (Madison, Wis.). Susceptibility of viruses to compounds was determined by incubation in the presence of serial dilutions of the compound. The 50% effective concentration (EC50) was calculated by using the exponential form of the median effect equation where (Fa)=1/[1+(ED50/drug conc.)^m](Johnson V A, Byington R T. Infectivity Assay. In Techniques in HIV Research. ed. Aldovini A, Walker B D. 71-76. New York: Stockton Press. 1990). Activity equal to A refers to a compound having an EC50≤100 nM, while B and C denote compounds having an EC50 between 100 nM and 1 uM (B) or >1 uM (C).

Row | SMILES | EC50 (read-out: Activity) [µM] | EC50 (read-out: EC50 μM) [µM]
1 | Cc1nc(C)c([C@H](OC(C)(C)C)C(=O)O)c(N2CCC(C)(C)CC2)c1-c1ccc2c(c1)CCN(c1ncc(Cl)cn1)C2 [Compound 23] | < 0.1 | 
2 | Cc1nc(C)c([C@H](OC(C)(C)C)C(=O)O)c(N2CCC(C)(C)CC2)c1-c1ccc2c(c1)CCN(c1ncnc(Cl)c1N)C2 [Compound 54] | < 0.1 | 
3 | COc1cc(N2CCc3cc(-c4c(C)nc(C)c([C@H](OC(C)(C)C)C(=O)O)c4N4CCC(C)(C)CC4)ccc3C2)nc(OC)n1 [Compound 14] | < 0.1 | 
4 | COc1cc2ncnc(N3CCc4cc(-c5c(C)nc(C)c([C@H](OC(C)(C)C)C(=O)O)c5N5CCC(C)(C)CC5)ccc4C3)c2cc1OC [Compound 84] |  | 0.002
5 | Cc1nc(C)c([C@H](OC(C)(C)C)C(=O)O)c(N2CCC(C)(C)CC2)c1-c1ccc2c(c1)CCN(c1ncnc(N)c1C)C2 [Compound 55] | < 0.1 | 0.004
6 | Cc1nc(C)c([C@H](OC(C)(C)C)C(=O)O)c(N2CCC(C)(C)CC2)c1-c1ccc2c(c1)CCN(c1ccnc(N)n1)C2 [Compound 67] | < 0.1 | 
7 | Cc1nc(C)c([C@H](OC(C)(C)C)C(=O)O)c(N2CCC(C)(C)CC2)c1-c1ccc2c(c1)CCN(c1cc(Nc3ccccc3)ncn1)C2 [Compound 53] | < 0.1 | 
8 | Cc1nc(C)c([C@H](OC(C)(C)C)C(=O)O)c(N2CCC(C)(C)CC2)c1-c1ccc2c(c1)CCN(c1nccc(C#N)n1)C2 [Compound 26] | < 0.1 | 
9 | Cc1nc(C(F)(F)F)nc(N2CCc3cc(-c4c(C)nc(C)c([C@H](OC(C)(C)C)C(=O)O)c4N4CCC(C)(C)CC4)ccc3C2)c1C [Compound 58] | < 0.1 | 
10 | Cc1nc(C)c([C@H](OC(C)(C)C)C(=O)O)c(N2CCC(C)(C)CC2)c1-c1ccc2c(c1)CCN(c1nc(-c3ccccc3)cs1)C2 [Compound 3] | < 0.1 | 
11 | Cc1nc(C)c([C@H](OC(C)(C)C)C(=O)O)c(N2CCC(C)(C)CC2)c1-c1ccc2c(c1)CCN(c1ncc3ccccc3n1)C2 [Compound 73] |  | 0.002
